This note sets out measurements from ChEMBL document CHEMBL2331197, “Alstoniaphyllines A-C, unusual nitrogenous derivatives from the bark of Alstonia macrophylla” (J Nat Prod, 2013).

Active and inactive are the calls of the source. The calls are words filed in the database; no cut-off is given here.

The first test has as its system KB. As to the kind of experiment: Cytotoxicity against human KB cells by resazurin assay. Type of test: functional, cell-based.
As for `COc1ccc2c(c1)N(C)C(=O)[C@@]21C[C@@H]2N[C@H]1C[C@H]1C(C(C)=O)=COC[C@@H]21`, the 50% inhibitory concentration (IC50) was > 100 µM.

`C/C=C1/CN2CC[C@@]34c5cc(OC)ccc5N(C)[C@H]3[C@@H]2C[C@H]1[C@@H]4C(=O)OC`: the IC50 is > 100 µM.

`CC(=O)C1=COC[C@H]2[C@@H]3C[C@@]4(C(=O)N(C)c5ccccc54)[C@H](C[C@@H]12)N3` [ALSTONAL]: the IC50 is > 100 µM.

`CC1=C(C=O)[C@@H]2C[C@H]3c4c(c5ccccc5n4C)C[C@@H]([C@@H]2CO1)N3C` [ALSTONERINAL]: the IC50 is > 100 µM.

Consider `CC(=O)C1=COC[C@@H]2[C@H]1C[C@H]1C(=O)C[C@@H]2N1C` [ALSTONIAPHYLLINE A], for which the IC50 is > 100 µM.

On to `C[C@@H]1OC[C@@H]2[C@@H](C[C@H]3C(=O)C[C@@H]2N3C)[C@@H]1CO` [ALSTONIAPHYLLINE B], for which the IC50 is > 100 µM.

As for `C[C@@H]1OC[C@@H]2[C@@H](C[C@H]3C4=Nc5ccccc5C4=C[C@@H]2[N+]3(C)[O-])[C@@H]1CO` (stereo not given in full) [ALSTONIAPHYLLINE C], the half-inhibitory concentration (IC50) was > 100 µM.

Regarding `COc1ccc2c3c(n(C)c2c1)[C@@H]1C[C@H]2C(C=O)=C(C)OC[C@H]2[C@H](C3)N1C` [ALSTOPHYLLAL], the half-maximal inhibitory concentration (IC50) was > 100 µM.

Regarding `CC(=O)C1=COC[C@@H]2[C@H]1C[C@H]1[C@H](O)C[C@@H]2N1C` [ANGUSTIMALINE], the IC50 is > 100 µM.

Compound `COc1cccc2c1C(=O)c1c(O)c3c(c(O)c1C2=O)C[C@@](O)(C(=O)CO)C[C@@H]3O[C@H]1C[C@H](N)[C@H](O)[C@H](C)O1` [DOXORUBICIN] gave a concentration for half-maximal inhibition (IC50) of 0.55 µM.

The compound `Cc1c2ccncc2c(C)c2c1[nH]c1ccccc12` [ELLIPTECINE] came in with an IC50 of 4.87 µM.

For `C[C@@H]1OC[C@@H]2[C@@H](C[C@H]3c4c(c5ccccc5n4C)C[C@@H]2N3C)[C@H]1CO` [MACROCARPINE B], the IC50 was > 100 µM.

Regarding `C[C@@H]1OC[C@@H]2[C@@H](C[C@H]3c4c(c5ccccc5n4C)C[C@@H]2N3C)[C@@H]1C=O` [Talcarpine], the concentration for half-maximal inhibition (IC50) is > 100 µM.

The next test relates to Plasmodium falciparum. Kind of test: Antimalarial activity against multidrug-resistant Plasmodium falciparum K1 by [3H]-hypoxanthine incorporation assay. Type of test: functional, organism-based.
Turning to `COc1ccc2c(c1)N(C)C(=O)[C@@]21C[C@@H]2N[C@H]1C[C@H]1C(C(C)=O)=COC[C@@H]21`, the outcome was Active.

For `CC(=O)C1=COC[C@H]2[C@@H]3C[C@@]4(C(=O)N(C)c5ccccc54)[C@H](C[C@@H]12)N3` [ALSTONAL], half-maximal inhibition (IC50) required 7.6 µM.

As usually defined, the IC50 is the concentration at which inhibition is half-maximal. Read a low IC50 as higher potency.
